Literature values, collected in article PMC10591878 (ACS infectious diseases, 2023).

Tests used:
[1] = system: P. falciparum Dd2-B2 parasites; conditions: for MIR: Dd2-B2; for resistant parasites in 3 wells of 3 × 10^7 / resistant parasites in 4 wells of 2.5 × 10^6: Dd2-B2, 3 × EC50
[2] = system: Dd2-B2 Pf20S WT and mutant lines; conditions: β6 N151Y vs Dd2-B2 parental line

Row | Structure (SMILES) | number of parasites with which resistance was obtained [1] | MIR [1] | resistant parasites in 3 wells of 3 × 10^7 [1] | resistant parasites in 4 wells of 2.5 × 10^6 [1] | EC50 fold shift against selection compound [2] [×]
1 | CC(C)C[C@@H](/C=C/S(C)(=O)=O)NC(=O)[C@H](CC(C)C)NC(=O)[C@H](Cc1c[nH]c2ccccc12)NC(=O)CN1CCOCC1 [WLL] | 2 × 10^9 parasites | >1 × 10^9 | none | 0/4 wells | 
2 | O=C(NC1CCCC1)[C@@H]1CCCCOc2cccc(c2)C[C@H](N2CCCC2=O)C(=O)N[C@@H](CCN2CCOCC2)C(=O)N1 [TDI-8304] |  | 3×10^7 | 3/3 wells | 0/4 wells | 1.7
